# Source: patent publication US20250034170A1, “SMALL MOLECULE MODULATORS OF GLUCOCEREBROSIDASE ACTIVITY AND USES THEREOF” (Vanqua Bio, Inc., priority 2021, published 2025)
# Biological target: T1, GCase (Homo sapiens, UniProt P04062)
# T1 construct: endogenous in cells; host or cells: HeLa cells
# T1 sequence (P04062 40-536): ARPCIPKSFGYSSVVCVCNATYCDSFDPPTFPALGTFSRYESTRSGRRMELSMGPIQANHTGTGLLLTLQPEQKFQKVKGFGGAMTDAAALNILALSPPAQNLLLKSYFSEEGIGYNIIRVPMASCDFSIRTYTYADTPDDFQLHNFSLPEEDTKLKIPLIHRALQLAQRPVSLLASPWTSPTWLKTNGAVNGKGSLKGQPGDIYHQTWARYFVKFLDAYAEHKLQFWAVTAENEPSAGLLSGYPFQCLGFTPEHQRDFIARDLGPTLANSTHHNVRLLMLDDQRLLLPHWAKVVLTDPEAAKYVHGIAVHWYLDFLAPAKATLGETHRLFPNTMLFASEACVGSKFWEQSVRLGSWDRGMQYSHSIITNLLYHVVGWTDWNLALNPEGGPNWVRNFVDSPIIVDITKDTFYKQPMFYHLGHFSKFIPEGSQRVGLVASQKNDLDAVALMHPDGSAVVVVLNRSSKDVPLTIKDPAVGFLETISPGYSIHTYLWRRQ
# Experiment: activation of GCase in a live cell PFB assay in HELA cells
# Format: cell-based
# Conditions: EC50 given as range classes
# Procedure: Exemplary compounds were evaluated for activation of GCase in a live cell PFB assay in HELA cells (essentially as described in Ysselstein et al., “LRRK2 kinase activity regulates lysosomal glucocerebrosidase in neurons derived from Parkinson's disease patients” Nature Communications (2019) 10:5570). […] EC50 ranges: A: <10 μM; B: >10-50 μM; C: >50-100 μM; D: >100 μM.
row,Compound,EC50 [µM]
1,FC(F)Cn1ncc2ncc(N3CCCC4(CCN(c5ccc(C(F)(F)F)nc5)CC4)C3)nc21 [Cmpd 220],< 10
2,CCn1c(N2CCC3(CC2)CC(=O)N(c2ccnc(C(F)(F)F)c2)C3)nc2c(cnn2CC(F)F)c1=O [Cmpd 1019],< 10
3,FC(F)(F)c1ncc(N2CC3(CCN(c4cncc(-c5nnc(C(F)(F)F)s5)n4)C3)C2)cn1 [Cmpd 1025],< 10
4,Cc1nc(N2CCC3(CCN(c4ccc5c(C)nn(CC(F)F)c5n4)CC3)C2)cc(C(F)(F)F)n1 [Cmpd 626],< 10
5,FC(F)Cn1ncc2ncc(NC3CCC4(CCN(c5ccc(C(F)(F)F)nc5)C4)C3)nc21 (centres unmarked) [Cmpd 193],10 to 50
6,FC(F)Cn1ncc2ncc(NC3CCC4(CCN(c5cc(C(F)(F)F)ccn5)CC4)C3)nc21 (centres unmarked) [Cmpd 196],> 100
7,Cc1ncc(N2CC3(CCN(c4ncc5cnn(CC(F)F)c5n4)C3)C2)c(C(F)(F)F)n1 [Cmpd 595],< 10
8,Cc1nc(N2CCC3(C2)CN(c2cnc4c(C)nn(CC(F)(F)F)c4n2)C3)cc(C(F)(F)F)n1 [Cmpd 609],10 to 50
9,Cc1ncc(N2CC3(CCN(c4cnc5c(C)nn(C6COC6)c5n4)C3)C2)c(C(F)(F)F)n1 [Cmpd 599],10 to 50
10,Cn1c(N2CCC3(CN(c4ccnc(C(F)(F)F)c4)C3)C2=O)nc2c(cnn2CC(F)F)c1=O [Cmpd 992],10 to 50
11,Fc1cc(Cl)cnc1N1CC2(CCN(c3cnc4cnn(CC(F)F)c4n3)C2)C1 [Cmpd 407],10 to 50

# Same assay, conditions: activation of GCase, EC50 ranges
row,Compound,EC50 [µM]
1,"Cc1nn(CC(F)F)c2nc(N3CC4(CCCN(c5ccc(C(F)F)nc5)C4)C3)cnc12 [Compound 159, 2-[1-(2,2-difluoroethyl)-3-methyl-1H-pyrazolo[3,4-b]pyrazin-6-yl]-6-[6-(difluoromethyl)pyridin-3-yl]-2,6-diazaspiro[3.5]nonane]",> 100
2,Cc1nc(C(F)(F)F)ncc1N1CC2(CCN(c3cnc4cnn(CC(F)F)c4n3)C2)C1 [Cmpd 957],10 to 50
3,O=C1CC2(CCN(c3cnc4cnn(CC(F)F)c4n3)CC2)CN1Cc1ccc(C(F)(F)F)nc1 [Cmpd 307],< 10
4,Cc1nc(N2CC3(CCN(c4cnc5c(C)nn(CC(C)(F)F)c5n4)C3)C2)cc(C(F)(F)F)n1 [Cmpd 1128],10 to 50
5,Cc1nn(CC(F)F)c2nc(N3CCC4(CC3)CCN(c3cncc(C(F)(F)F)n3)C4=O)cnc12 [Cmpd 271],10 to 50
6,"CCC1C(=O)N(c2cc(C(F)(F)F)ccn2)CC12CCN(c1cnc3cnn(CC(F)F)c3n1)CC2 (centres unmarked) [Compound 75, 8-(1-(2,2-difluoroethyl)-1H-pyrazolo[3,4-b]pyrazin-6-yl)-4-ethyl-2-(4-(trifluoromethyl)pyridin-2-yl)-2,8-diazaspiro[4.5]decan-3-one]",< 10
7,O=C1CC2(CCN(c3cnc4cnn(C5COC5)c4n3)CC2)CN1c1ccnc(C(F)(F)F)n1 [Cmpd 907],< 10
8,Cc1nn(CC(F)F)c2nc(N3CCC4(CCN(c5ccnc(C(F)(F)F)c5)C4)CC3)n(C)c(=O)c12 [Cmpd 1104],10 to 50
9,"FC(F)(F)Cn1ncc2ncc(N3CCCC4(CC(Oc5cnccc5C(F)(F)F)C4)C3)nc21 (centres unmarked) [Compound 11, 6-[1-(2,2,2-trifluoroethyl)-1H-pyrazolo[3,4-b]pyrazin-6-yl]-2-{[4-(trifluoromethyl)pyridin-3-yl]oxy}-6-azaspiro[3.5]nonane]",< 10
10,Cc1nc(N2CC3(CCN(c4ncc5c(n4)n(CC(F)F)c(=O)n5C)C3)C2)cc(C(F)(F)F)n1 [Cmpd 1082],< 10
11,CCn1c(N2CCC3(CCN(c4ccnc(C(F)(F)F)c4)C3)CC2)nc2c(cnn2CC(F)F)c1=O [Cmpd 1099],< 10
12,Cc1nc(N2CCC3(CCN(c4nc5c(cnn5CC(F)F)c(=O)n4CC(C)C)CC3)C2)cc(C(F)(F)F)n1 [Cmpd 1107],< 10
13,Cc1cc(N2CC3(CCN(c4ncc5cnn(C6COC6)c5n4)C3)C2)nc(C)n1 [Cmpd 643],10 to 50
14,CCn1nc(N2CCC3(CCN(c4cnc5cnn(CC(F)F)c5n4)CC3)C2=O)ccc1=O [Cmpd 847],10 to 50
15,FC(F)Cn1ncc2ncc(N3CCC4(CCN(c5ccnc(C(F)(F)F)c5)C4)C3)nc21 (centres unmarked) [Cmpd 472],> 100
16,"O=C1N(c2cc(C(F)(F)F)ccn2)CCC12CCCN(c1cnc3cnn(CC(F)F)c3n1)C2 (centres unmarked) [Compound 98, 7-[1-(2,2-difluoroethyl)-1H-pyrazolo[3,4-b]pyrazin-6-yl]-2-[4-(trifluoromethyl)pyridin-2-yl]-2,7-diazaspiro[4.5]decan-1-one]",50 to 100
17,Cc1nc(N2CC3(CCN(c4cnc5cnn(CC(F)F)c5c4)C3)C2)cc(C(F)(F)F)n1 [Cmpd 636],< 10
18,Cc1nc(N2CCC3(CCN(c4cnc5cnn(CC(F)(F)F)c5n4)CC3)C2)cc(C(F)(F)F)n1 [Cmpd 571],10 to 50
19,"FC(F)Cn1ncc2ncc(N3CCC4(CCN(c5ccc(C(F)(F)F)cn5)CC4)C3)nc21 [Compound 150, 2-[1-(2,2-difluoroethyl)-1H-pyrazolo[3,4-b]pyrazin-6-yl]-8-[5-(trifluoromethyl)pyridin-2-yl]-2,8-diazaspiro[4.5]decane]",10 to 50
20,Cc1nc(N2CC3(CCN(c4cnc5cnn(C)c5n4)C3)C2)cc(C(F)(F)F)n1 [Cmpd 649],10 to 50
21,"FC(F)Cn1ncc2ncc(N3CC4(CC(COc5cccnc5C(F)(F)F)C4)C3)nc21 [Compound 131, 2-[1-(2,2-difluoroethyl)-1H-pyrazolo[3,4-b]pyrazin-6-yl]-6-({[2-(trifluoromethyl)pyridin-3-yl]oxy}methyl)-2-azaspiro[3.3]heptane]",< 10
22,CCC1N(c2ccnc(C(F)(F)F)c2)C(=O)CC12CCN(c1cnc3cnn(CC(F)F)c3n1)CC2 (centres unmarked) [Cmpd 853],10 to 50
23,"FC(F)(F)Cn1ncc2ncc(N3CCC4(CCN(c5cc(C(F)(F)F)ccn5)C4)CC3)nc21 [Compound 177, 8-[1-(2,2,2-trifluoroethyl)-1H-pyrazolo[3,4-b]pyrazin-6-yl]-2-[4-(trifluoromethyl)pyridin-2-yl]-2,8-diazaspiro[4.5]decane]",50 to 100

row,Compound,EC50 [µM]
1,Cc1cc(N2CC3(CCN(c4cnc5c(C)nn(C6COC6)c5n4)C3)C2)nc(C(F)(F)F)n1 [Cmpd 1143],< 10
2,"FC(F)Cn1ncc2ncc(N3CCC4(CN(c5cc(C(F)(F)F)ccn5)CCO4)C3)nc21 (centres unmarked) [Compound 174, 2-[1-(2,2-difluoroethyl)-1H-pyrazolo[3,4-b]pyrazin-6-yl]-9-[4-(trifluoromethyl)pyridin-2-yl]-6-oxa-2,9-diazaspiro[4.5]decane]",50 to 100
3,Cc1nc(N2CC3(CCN(c4ncc5cnn(C)c5n4)C3)C2)cc(C(F)(F)F)n1 [Cmpd 647],10 to 50
4,Cc1cc(N2CC3(CCN(c4cnc5cnn([C@H]6CCOC6)c5n4)C3)C2)nc(C(F)(F)F)n1 [Cmpd 1146],10 to 50
5,Cc1cnc(C(F)(F)F)cc1N1CC2(CCN(c3cnc4cnn(C5COC5)c4n3)C2)C1 [Cmpd 1042],> 100
6,O=C1N(c2nccc(C(F)(F)F)n2)CCC12CCN(c1cnc3cnn(C4COC4)c3n1)CC2 [Cmpd 278],< 10
7,Cc1nc(N2CC3(CCN(c4cnc5c(C)nn(C6COC6)c5n4)CC3)C2)cc(C(F)(F)F)n1 [Cmpd 565],10 to 50
8,FC(F)OCCn1ncc2ncc(N3CCC4(CCN(c5cc(C(F)(F)F)ccn5)C4)CC3)nc21 [Cmpd 751],10 to 50
9,CC1CC2(CCN(c3cccc(C(F)(F)F)n3)C2=O)CCN1c1cnc2cnn(CC(F)F)c2n1 (centres unmarked) [Cmpd 668],< 10
10,COc1nc2cnn(CC(F)F)c2nc1N1CCC2(CC1)CCN(c1ccc(C(F)(F)F)nc1)C2=O [Cmpd 834],< 10
11,FC(F)Cn1ncc2ncc(N3CCC4(CC3)CC(COc3cc(C(F)(F)F)ccn3)C4)nc21 [Cmpd 697],10 to 50
12,Cc1nc(OCC(F)(F)F)ncc1N1CC2(CCN(c3cnc4cnn(CC(F)F)c4n3)C2)C1 [Cmpd 959],10 to 50
13,FC(F)(F)c1cc(N2CC3(CCN(c4cnc5cnn(C[C@H]6CCO6)c5n4)C3)C2)ccn1 [Cmpd 934],< 10
14,CCn1ncc2ncc(N3CCC4(CC3)CC(=O)N(c3ccc(C(F)(F)F)nc3)C4)nc21 [Cmpd 890],< 10
15,"FC(F)Cn1ncc2ncc(N3CCC4(CCN(c5cc(C(F)F)ccn5)CC4)C3)nc21 [Compound 161, 2-[1-(2,2-difluoroethyl)-1H-pyrazolo[3,4-b]pyrazin-6-yl]-8-[4-(difluoromethyl)pyridin-2-yl]-2,8-diazaspiro[4.5]decane]",10 to 50
16,Cc1nc(N2CCC3(CCN(c4ncc5cnn(CC(F)(F)F)c5n4)C3)C2)cc(C(F)(F)F)n1 (centres unmarked) [Cmpd 548],> 100
17,Cc1nc(N2CC3(CCN(c4cnc5cnn(CC(F)F)c5n4)C3=O)C2)cc(C(F)(F)F)n1 [Cmpd 524],< 10
18,COc1nc(N2CCC3(CC2)CC(=O)N(c2cc(C(F)(F)F)ccn2)C3)nc2c1cnn2CC(F)F [Cmpd 304],< 10
19,Cc1nc(N2CC3(CCN(c4cnc5cnn(CC(F)F)c5n4)CC3)CC2=O)cc(C(F)(F)F)n1 [Cmpd 513],10 to 50
20,FC(F)(F)c1ccc(N2CCC3(CCN(c4cncc(N5CCCCC5)n4)CC3)C2)cn1 [Cmpd 256],< 10
21,Cc1nc(N2CCC3(CCN(c4cnc5cnn(C6COC6)c5n4)C3)C2)cc(C(F)(F)F)n1 (centres unmarked) [Cmpd 542],< 10
22,FC(F)Cn1ncc2ncc(N3CCC4(CN(c5ccc(OCC(F)(F)F)nc5)C4)C3)nc21 [Cmpd 436],10 to 50
